One assay concerns the target T1, δ opiate receptor (Rattus norvegicus, UniProt P33533).
T1 construct: The rat brain, which was freshly prepared in each case, was homogenized; from tissue; host or cells: brain of male Wistar rats, without the cerebellum, pons and medulla oblongata (membrane homogenate)
Kind of assay: δ opiate receptor binding (displacement of (3H)-2-D-ala-deltorphin II, rat brain membrane homogenate). Details: species or system male Wistar rats. The note with it: mean values ± standard deviations of ≥3 independent tests; 1 nmole/l (3H)-2-D-ala-deltorphin II; pH 7.4; 90 minutes at 37° C.; Ki from IC50 by Cheng-Prussoff equation. The method, then:
δ Opiate Receptor Binding Investigations
Tests to determine the affinity of the compounds of formula (I) according to the invention for the δ opiate receptor were performed on meninx homogenates (a homogenate of the brain of male Wistar rats, without the cerebellum, pons and medulla oblongata).
The rat brain, which was freshly prepared in each case, was homogenized for this purpose, while being cooled in ice, in 50 mmoles/l Tris-HCl (pH 7.4) and was centrifuged for 10 minutes at 5000 g and 4° C. After decanting and discarding the supernatant liquor, and taking up and homogenising the membrane sediment again in […] Tris-HCl (pH 7.4), the homogenate was subsequently centrifuged for 20 minutes at 20,000 g and 4° C. This washing step was repeated once more. Thereafter, the supernatant liquor was decanted, the membrane sediment was homogenized in cold 50 mmoles/l Tris-HCl, 20% glycerol (w/v), 0.01% bacitracin (w/v) (pH 7.4), and was frozen in aliquots until testing was performed. For the receptor binding tests, the aliquots were thawed and diluted 1:10 with the binding test buffer.
50 mmoles/l Tris-HCl, 5 mmoles/l MgCl2 (pH 7.4) supplemented with 0.1% (w/v) bovine serum albumin, with 1 nmole/l (^3 H)-2-D-ala-deltorphin II as the radioactive ligand, was used as the buffer in the binding test. The proportion of non-specific binding was determined in the presence of 10 μmoles/l naloxone.
In further batches, the compounds according to the invention were added in a series of concentrations and the displacement of the radioactive ligand from its specific binding was determined. The respective triple batches were incubated for 90 minutes at 37° C. and were subsequently harvested by means of filtration through glass fiber filters (GF/B) for the determination of the radioactive ligand bound to the membrane homogenate. The radioactivity of the glass fiber filter discs was measured in a β-counter after adding a scintillator.
The affinity of the compounds according to the invention for the δ opiate receptor was calculated by the mass action law, by means of non-linear regression, as the IC50 value. Ki values were calculated from the IC50 values using the Cheng-Prussoff equation. The Ki values are given as mean values ± standard deviations of ≥3 tests which were independent of each other.

The subject of the next assay is μ-receptors. The note with it: background statement; cited from earlier work.

Where a name gives a salt, the structure may show the parent alone.

T1 sequence (P33533 whole entry): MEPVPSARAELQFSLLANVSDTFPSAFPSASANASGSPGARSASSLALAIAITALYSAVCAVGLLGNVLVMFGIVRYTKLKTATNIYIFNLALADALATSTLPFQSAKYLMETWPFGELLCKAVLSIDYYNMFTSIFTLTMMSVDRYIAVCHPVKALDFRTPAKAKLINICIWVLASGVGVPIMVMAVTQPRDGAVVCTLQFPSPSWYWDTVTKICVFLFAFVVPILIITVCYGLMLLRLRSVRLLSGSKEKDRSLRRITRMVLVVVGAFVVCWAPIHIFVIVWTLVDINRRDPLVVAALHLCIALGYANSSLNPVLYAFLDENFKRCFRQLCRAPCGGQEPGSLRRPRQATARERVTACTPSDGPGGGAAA

Compound `CN(C)CC1=C(c2cccc(O)c2)c2ccccc2CC1` [Example 1, 3-(2-dimethylaminomethyl-3,4-dihydro-naphth-1-yl)-phenol hydrochloride] came in with an inhibition constant Ki on δ opiate receptor of 0.0558 ± 0.0046 µM.

The compound `CN(C)CC1=C(c2cccc(O)c2)c2ccccc2CCC1` [Example 2a, 3-(6-dimethylaminomethyl-8,9-dihydro-7H-benzo-cyclohepten-5-yl)-phenol hydrochloride] had a Ki at δ opiate receptor of 0.0172 ± 0.0043 µM. Against the preceding compound, the Ki is about 3.2-fold lower.

Compound `CCN(CC)CC1=C(c2cccc(O)c2)c2ccccc2CCC1` [Example 2b, 3-(6-diethylaminomethyl-8,9-dihydro-7H-benzocyclohepten-5-yl)-phenol hydrochloride] gave an inhibition constant (Ki) at δ opiate receptor of 0.728 ± 0.146 µM. This Ki lies about 42-fold higher than the previous one.

With `CCCN(CCC)CC1=C(c2cccc(O)c2)c2ccccc2CCC1` [Example 2c, 3-(6-di-n-propylaminomethyl-8,9-dihydro-7H-benzocyclohepten-5-yl)-phenol h ydrochloride], the Ki at δ opiate receptor worked out at 0.294 ± 0.106 µM.

Turning to `CN(CCc1ccccc1)CC1=C(c2cccc(O)c2)c2ccccc2CCC1` [Example 2d, 3-{6-[(methyl-phenethyl-amino)-methyl]-8,9-dihydro-7H-benzocyclohepten-5-yl}-phenol hydrochloride], the affinity on δ opiate receptor, expressed as Ki, was 0.0543 ± 0.0082 µM. Against the preceding compound, the Ki is about 5.4-fold lower.

At δ opiate receptor, `CN(CC1=C(c2cccc(O)c2)c2ccccc2CCC1)Cc1ccccc1` [Example 2e, 3-{6-[(benzyl-methyl-amino)-methyl]-8,9-dihydro-7H-benzocyclohepten-5-yl}-phenol hydrochloride] yielded an inhibitory constant (Ki) of 0.936 ± 0.032 µM.

For the compound `CN(C)CC1=C(c2cccc(O)c2)c2ccccc2CCCC1` [Example 2f, 3-(6-dimethylaminomethyl-7,8,9,10-tetrahydrobenzocycloocten-5-yl)-phenol h ydrochloride], the Ki at δ opiate receptor stood at 0.0463 ± 0.0101 µM.

Compound `CN(CC1=C(c2cccc(O)c2)c2ccccc2CCC1)CC1CC1` [Example 2g, 3-{6-[(cyclopropylmethyl-methyl-amino)-methyl]-8,9-dihydro-7H-benzocyclohepten-5-yl}-phenol hydrochloride] came in with a Ki at δ opiate receptor of 0.182 ± 0.012 µM.

On δ opiate receptor, `CN(CCc1ccccn1)CC1=C(c2cccc(O)c2)c2ccccc2CCC1` [Example 2h, 3-(6-{[methyl-(2-pyridin-2-yl-ethyl)-amino]-methyl)-8,9-dihydro-7H-benzocyclohepten-5-yl)-phenol dihydrochloride] gave a Ki of 0.223 ± 0.086 µM.

On to `CN(C)CC1=C(c2cccc(O)c2)c2ccccc2C1` [Example 2i, 3-(2-dimethylaminomethyl-3H-inden-1-yl)-phenol hydrochloride], for which, at δ opiate receptor, the Ki stood at 0.157 ± 0.016 µM.

The compound `CN(C)CC1=C(c2cccc(O)c2)c2ccc3ccccc3c2CC1` [Example 2j, 3-(2-dimethylaminomethyl-3,4-dihydro-phenanthren-1-yl)-phendlydrochloride] registered a Ki on δ opiate receptor of 0.0808 ± 0.0297 µM.

For `COc1ccc2c(c1)CCC(CN(C)C)=C2c1ccccc1` [Example 3, (6-methoxy-1-phenyl-3,4-dihydro-naphth-2-ylmethyl)-dimethylamine hydrochloride], affinity at δ opiate receptor was put at a Ki of 0.456 ± 0.062 µM. This Ki is about 5.6-fold higher than that of the compound before.

In turn, `COc1cccc2c1CCC(CN(C)C)=C2c1ccccc1` [Example 4, (5-methoxy-1-phenyl-3,4-dihydro-naphth-2-ylmethyl)-dimethylamine hydrochloride] yielded an inhibition constant Ki on δ opiate receptor of 0.517 ± 0.045 µM.

With `CN(C)CC1=C(c2cccc(O)c2)c2ccc(O)cc2CC1` [Example 6, 6-dimethylaminomethyl-5-(3-hydroxy-phenyl)-7,8-dihydro-naphth-2-ol hydrochloride], on δ opiate receptor, the Ki amounted to 0.0409 ± 0.0067 µM.

For `CN(C)CC1=C(c2cccc(O)c2)c2cc(Oc3ccccc3)ccc2CC1` [Example 8, 3-(2-dimethylaminomethyl-7-phenoxy-3,4-dihydro-naphth-1-yl)-phenol hydrochloride], on δ opiate receptor, the affinity corresponds to a Ki of 0.0257 ± 0.0102 µM.

As for `COc1cccc2c1CCC(CN(C)C)=C2c1cccc(O)c1` [Example 9a, 3-(2-dimethylaminomethyl-5-methoxy-3,4-dihydronaphth-1-yl)-phenol hydrochloride], at δ opiate receptor, the Ki was found to be 0.0239 ± 0.0009 µM.

On to `CN(C)CC1=C(c2cccc(O)c2)c2cc(-c3ccccc3)ccc2CC1` [Example 9b, 3-(2-dimethylaminomethyl-7-phenyl-3,4-dihydronaphth-1-yl)-phenol hydrochloride], for which the affinity on δ opiate receptor corresponds to a Ki of 0.0393 ± 0.0022 µM. Against the preceding compound, the Ki is about 1.6-fold higher.

For the compound `CCCCc1ccc2c(c1)C(c1cccc(O)c1)=C(CN(C)C)CC2` [Example 9c, 3-(7-n-butyl-2-dimethylaminomethyl-3,4-dihydronaphth-1-yl)-phenol hydrochloride], the affinity at δ opiate receptor corresponds to a Ki of 0.0422 ± 0.016 µM.

`C=CCN(C)CC1=C(c2cccc(O)c2)c2ccccc2CCC1` [Example 10, 3-{6-[allyl-methyl-amino)-methyl]-8,9-dihydro-7H-benzocyclohepten-5-yl}-phenol hydrochloride]: the inhibition constant Ki at δ opiate receptor came out at 0.679 ± 0.214 µM.

On δ opiate receptor, `CC(CN(C)C)=C(c1cccc(O)c1)c1cccc(O)c1` [Example 11a, 3-[3-dimethylamino-1-(3-hydroxyphenyl)-2-methyl-propenyl]-phenol hydrochloride] had a Ki of 0.034 ± 0.0058 µM.

With `C/C(CN(C)C)=C(\c1ccc(-c2ccccc2)cc1)c1cccc(O)c1` [Example 11b, Z-3-(1-biphenyl-4-yl-3-dimethylamino-2-methyl-propenyl)-phenol hydrochloride], at δ opiate receptor, the Ki amounted to 0.0237 ± 0.0017 µM.

As for `CN1CC[C@]23c4c5ccc(O)c4O[C@H]2[C@@H](O)C=C[C@H]3[C@H]1C5` [morphine], in the assay with μ-receptors, the “selective binding to μ-receptors” value is given as “selectively binds to what are termed μ-receptors”.

One may read the Ki as the dissociation constant of the complex between target and ligand, obtained from inhibition or displacement. A higher Ki goes with a looser hold on the target.

The values are drawn from US6022895A, “Substituted amino compounds and their use as substances having an analgesic effect” (priority 1997, dated 2000).
